Assays:
[1] = Plasma Stability Assay (human plasma); assay type: in vitro ADME; settings: both sexes; pooled human plasma, heparin, final conc. 2 μM, 37° C., 0-120 min; read-out: Human Plasma Stability t1/2
Experimental: This Example illustrates that exemplary compounds of the present invention is cleavage in human plasma.
(§1) Test Compounds and Stock Solutions: Stock Conc. 10 mM; Final Conc. 2 μM
(§2) Test Compound and Control Working Solution Preparation:
• Test compound intermediate solution: 10 μL of compound stock solution (10 mM in dimethyl sulfoxide (DMSO)) were diluted with 90 μL of DMSO (intermediate solution concentration: 1 mM, 100% DMSO) • Control intermediate solution: 10 μL of control stock solution (10 mM in dimethyl sulfoxide (DMSO)) were diluted with 90 μL of DMSO (intermediate solution concentration: 1 mM, 100% DMSO) • Species/Matrix: Human Plasma • No. of Individuals: 3 Male & 3 Female • Anticoagulant Used: Heparin
• The pooled frozen plasma was thawed in a water bath at 37° C. prior to experiment. Plasma was centrifuged at 4000 rpm for 5 min and the clots were removed if any. • Using an Apricot automation workstation, 98 μL/well of blank plasma were added to all 96-well reaction plates. (Blank, T0, T10, T30, T60 and T120) • An Apricot automation workstation was used to add 2 μL/well of working solution (100 μM) to all reaction plates except Blank. (T0, T10, T30, T60 and T120) • All reaction plates containing mixtures of compound and plasma were incubated at 37° C. in water bath. • The reaction plates were incubated at 37° C., and timer was started. • At the end of incubation, added 500 μL of stop solution (200 ng/mL tolbutamide and 200 ng/mL labetalol in ACN) to precipitate protein. Mixed thoroughly. • Each plate was sealed and shaken for 20 minutes. • After shaking, each plate was centrifuged at 4000 rpm and 4° C. for 20 minutes • After centrifugation, an Apricot automation workstation was used to transfer 50 μL supernatant into 100 μL HPLC water. • Each bioanalysis plate was sealed and shaken for 10 minutes prior to LC-MS/MS analysis Data Analysis • The % remaining of test compound after incubation in blood was calculated using following equation:
(§3) [formula] • where PAR is the peak area ratio of analyte versus internal standard (IS) • The appointed incubation time points are TO (0 min), Tn (n=0, 10, 30, 60 and 120 min)

[2] = Whole Blood Stability Assay (mouse whole blood); assay type: in vitro ADME; settings: CD-1 mouse blood, EDTA-K2, final conc. 2 μM, 37° C., 0-120 min; for half-life at 2 μM: male, fresh whole blood, read-out: Mouse Whole Blood Stability t1/2
Experimental: Whole Blood Stability Assay
This Example illustrates that exemplary compounds of the present invention is cleavage in mouse whole blood.
as §1, §2
• Intermediate solution: 5 μL of compound stock solution (10 mM in dimethyl sulfoxide (DMSO)) were diluted with […] of DMSO (intermediate solution concentration: 1 mM, 100% DMSO) • Propantheline bromide (control) intermediate solution: 5 μL of propantheline stock solution (10 mM in ultra-pure water) were diluted with 45 μL of ultra-pure water (intermediate solution concentration: 1 mM) • Working solution 1: 20 μL of test compound intermediate solution (1 mM) were diluted with 180 μL of 45% ACN/H2O (working solution concentration: […], 40.5% ACN, 10% DMSO) • Working solution 2: 20 μL of control intermediate solution (1 mM) were diluted with 180 μL of 45% ACN/H2O (working solution concentration: 100 μM, 40.5% ACN, 10% DMSO) • Species/Matrix: CD-1 Mouse Blood • No. of Individuals: n>3 Male • Anticoagulant Used: EDTA-K2
• The fresh blood was collected on the day of experiment and pre-warmed in a water bath at 37° C. • Using an Apricot automation workstation, 98 μL/well of blank blood were added to all 96-well reaction plates (Blank, T0, T10, T30, T60 and T120). • An Apricot automation workstation was used to add 2 μL/well of working solution (100 μM) to all reaction plates except Blank (T0, T10, T30, T60 and T120). • All reaction plates containing mixtures of compound and blood were incubated at 37° C. in water bath. • The reaction plates were incubated at 37° C., and timer was started. • At the end of incubation, mixed 100 μL water with 100 μL spiked blood samples, then added 800 μL of stop solution (200 ng/mL tolbutamide and 200 ng/mL labetalol in ACN) to precipitate protein. Mixed thoroughly. • Each plate was sealed and shaken for 20 minutes. • After shaking, each plate was centrifuged at 4000 rpm and 4° C. for 20 minutes. • After centrifugation, an Apricot automation workstation was used to transfer 150 μL of supernatant from each reaction plate to its corresponding bioanalysis plate. • Each bioanalysis plate was submitted to LC-MS/MS analysis.
• The % remaining of test compound after incubation in blood was calculated using following equation:
as §3

Row | half-life at 2 μM [1] [min] | half-life at 2 μM [2] [min] | Mouse Whole Blood Stability t1/2 [2] [min] | Compound
1 | 44 | < 5 | – | CCCCCC(=O)Oc1cc(-c2ncc3c(N4C[C@@H]5C[C@H](C4)[C@H](O)C5)nc(OC[C@@]45CCCN4C[C@H](F)C5)nc3c2F)c2c(CC)c(F)ccc2c1 [Example 18, 5-ethyl-6-fluoro-4-(8-fluoro-2-(((2R,7aS)-2-fluorotetrahydro-1H-pyrrolizin-7a(5H)-yl)methoxy)-4-((1R,5R,6R)-6-hydroxy-3-azabicyclo[3.2.1]octan-3-yl)pyrido[4,3-d]pyrimidin-7-yl)naphthalen-2-yl hexanoate]
2 | > 289 | 3 | – | CCc1c(F)ccc2cc(OC(=O)OC(C)(C)C)cc(-c3ncc4c(N5C[C@@H]6C[C@H](C5)[C@H](O)C6)nc(OC[C@@]56CCCN5C[C@H](F)C6)nc4c3F)c12 [Example 19, tert-butyl (5-ethyl-6-fluoro-4-(8-fluoro-2-(((2R,7aS)-2-fluorotetrahydro-1H-pyrrolizin-7a(5H)-yl)methoxy)-4-((1R,5R,6R)-6-hydroxy-3-azabicyclo[3.2.1]octan-3-yl)pyrido[4,3-d]pyrimidin-7-yl)naphthalen-2-yl) carbonate]
3 | > 289 | > 289 | – | CCc1c(F)ccc2cc(OCOC(=O)N(C)C)cc(-c3ncc4c(N5C[C@@H]6C[C@H](C5)[C@H](O)C6)nc(OC[C@@]56CCCN5C[C@H](F)C6)nc4c3F)c12 [Example 20, ((5-ethyl-6-fluoro-4-(8-fluoro-2-(((2R,7aS)-2-fluorotetrahydro-1H-pyrrolizin-7a(5H)-yl)methoxy)-4-((1R,5R,6R)-6-hydroxy-3-azabicyclo[3.2.1]octan-3-yl)pyrido[4,3-d]pyrimidin-7-yl)naphthalen-2-yl)oxy)methyl dimethylcarbamate]
4 | 41 | – | 1 | CCc1c(F)ccc2cc(OC(=O)C3CCCCC3)cc(-c3ncc4c(N5C[C@@H]6C[C@H](C5)[C@H](O)C6)nc(OC[C@@]56CCCN5C[C@H](F)C6)nc4c3F)c12 [Example 21, 5-ethyl-6-fluoro-4-(8-fluoro-2-(((2R,7aS)-2-fluorotetrahydro-1H-pyrrolizin-7a(5H)-yl)methoxy)-4-((1R,5R,6R)-6-hydroxy-3-azabicyclo[3.2.1]octan-3-yl)pyrido[4,3-d]pyrimidin-7-yl)naphthalen-2-yl cyclohexanecarboxylate]
5 | > 289 | > 289 | – | CCc1c(F)ccc2cc(OC(C)OC(=O)N(C)C)cc(-c3ncc4c(N5C[C@@H]6C[C@H](C5)[C@H](O)C6)nc(OC[C@@]56CCCN5C[C@H](F)C6)nc4c3F)c12 (stereo partly drawn) [Example 22, 1-((5-ethyl-6-fluoro-4-(8-fluoro-2-(((2R,7aS)-2-fluorotetrahydro-1H-pyrrolizin-7a(5H)-yl)methoxy)-4-((1R,5R,6R)-6-hydroxy-3-azabicyclo[3.2.1]octan-3-yl)pyrido[4,3-d]pyrimidin-7-yl)naphthalen-2-yl)oxy)ethyl dimethylcarbamate]
6 | 65 | – | 1 | CCCCCCCC(=O)Oc1cc(-c2ncc3c(N4C[C@@H]5C[C@H](C4)[C@H](O)C5)nc(OC[C@@]45CCCN4C[C@H](F)C5)nc3c2F)c2c(CC)c(F)ccc2c1 [Example 24, 5-ethyl-6-fluoro-4-(8-fluoro-2-(((2R,7aS)-2-fluorotetrahydro-1H-pyrrolizin-7a(5H)-yl)methoxy)-4-((1R,5R,6R)-6-hydroxy-3-azabicyclo[3.2.1]octan-3-yl)pyrido[4,3-d]pyrimidin-7-yl)naphthalen-2-yl octanoate]
7 | 77 | – | 1 | CCCCCCCCCC(=O)Oc1cc(-c2ncc3c(N4C[C@@H]5C[C@H](C4)[C@H](O)C5)nc(OC[C@@]45CCCN4C[C@H](F)C5)nc3c2F)c2c(CC)c(F)ccc2c1 [Example 25, 5-ethyl-6-fluoro-4-(8-fluoro-2-(((2R,7aS)-2-fluorotetrahydro-1H-pyrrolizin-7a(5H)-yl)methoxy)-4-((1R,5R,6R)-6-hydroxy-3-azabicyclo[3.2.1]octan-3-yl)pyrido[4,3-d]pyrimidin-7-yl)naphthalen-2-yl decanoate]

The next lines start with the molecule.

Row | Compound | half-life at 2 μM [1] [min] | half-life at 2 μM [2] [min] | Mouse Whole Blood Stability t1/2 [2] [min]
8 | CCCC(=O)Oc1cc(-c2ncc3c(N4C[C@@H]5C[C@H](C4)[C@H](O)C5)nc(OC[C@@]45CCCN4C[C@H](F)C5)nc3c2F)c2c(CC)c(F)ccc2c1 [Example 11, 5-ethyl-6-fluoro-4-(8-fluoro-2-(((2R,7aS)-2-fluorotetrahydro-1H-pyrrolizin-7a(5H)-yl)methoxy)-4-((1R,5R,6R)-6-hydroxy-3-azabicyclo[3.2.1]octan-3-yl)pyrido[4,3-d]pyrimidin-7-yl)naphthalen-2-yl butyrate] | 46 | < 5 | –
9 | CCOC(=O)Oc1cc(-c2ncc3c(N4C[C@@H]5C[C@H](C4)[C@H](O)C5)nc(OC[C@@]45CCCN4C[C@H](F)C5)nc3c2F)c2c(CC)c(F)ccc2c1 [Example 12, ethyl (5-ethyl-6-fluoro-4-(8-fluoro-2-(((2R,7aS)-2-fluorotetrahydro-1H-pyrrolizin-7a(5H)-yl)methoxy)-4-((1R,5R,6R)-6-hydroxy-3-azabicyclo[3.2.1]octan-3-yl)pyrido[4,3-d]pyrimidin-7-yl)naphthalen-2-yl) carbonate] | 26 | < 5 | –
10 | CCc1c(F)ccc2cc(OC(=O)C3CCC3)cc(-c3ncc4c(N5C[C@@H]6C[C@H](C5)[C@H](O)C6)nc(OC[C@@]56CCCN5C[C@H](F)C6)nc4c3F)c12 [Example 13, 5-ethyl-6-fluoro-4-(8-fluoro-2-(((2R,7aS)-2-fluorotetrahydro-1H-pyrrolizin-7a(5H)-yl)methoxy)-4-((1R,5R,6R)-6-hydroxy-3-azabicyclo[3.2.1]octan-3-yl)pyrido[4,3-d]pyrimidin-7-yl)naphthalen-2-yl cyclobutanecarboxylate] | 16 | 6 | –
11 | CCc1c(F)ccc2cc(OC(=O)OC(C)C)cc(-c3ncc4c(N5C[C@@H]6C[C@H](C5)[C@H](O)C6)nc(OC[C@@]56CCCN5C[C@H](F)C6)nc4c3F)c12 [Example 15, 5-ethyl-6-fluoro-4-(8-fluoro-2-(((2R,7aS)-2-fluorotetrahydro-1H-pyrrolizin-7a(5H)-yl)methoxy)-4-((1R,5R,6R)-6-hydroxy-3-azabicyclo[3.2.1]octan-3-yl)pyrido[4,3-d]pyrimidin-7-yl)naphthalen-2-yl isopropyl carbonate] | 146 | < 5 | –
12 | CCc1c(F)ccc2cc(OC(=O)C3CCCC3)cc(-c3ncc4c(N5C[C@@H]6C[C@H](C5)[C@H](O)C6)nc(OC[C@@]56CCCN5C[C@H](F)C6)nc4c3F)c12 [Example 17, 5-ethyl-6-fluoro-4-(8-fluoro-2-(((2R,7aS)-2-fluorotetrahydro-1H-pyrrolizin-7a(5H)-yl)methoxy)-4-((1R,5R,6R)-6-hydroxy-3-azabicyclo[3.2.1]octan-3-yl)pyrido[4,3-d]pyrimidin-7-yl)naphthalen-2-yl cyclopentanecarboxylate] | 41 | – | 1

Source: patent publication US20250376483A1, “PRODRUGS OF PAN-KRAS INHIBITORS” (Mirati Therapeutics, Inc., priority 2022, published 2025)
